Measurements as given in US5464821A, “Small peptidic compounds useful for the treatment of glaucoma” (Carlbiotech, Ltd., priority 1991, dated 1995).
Residues, ends and D or L forms follow the SMILES beside them. *: point of attachment. OBn = c1ccc(CO*)cc1; Acm = CC(=O)NC*

Legend:
[1] = test system: water load induced hypertension in the rabbit's eye; experiment: water load model, intraocular pressure in the rabbit's eye; assay type: in vivo
Description: The findings of IOP lowering effects in the stress induced rabbit model have been confirmed and further studied by using another elevated eye pressure rabbit model. In this model, the widely applied water load model, elevation of the intraocular pressure is achieved by injecting a large volume of sterile water intraperitoneally into the rabbits. Following onset of eye drop treatment in one eye while the other eye is treated with saline placebo, the intraocular pressure of both eyes is then measured at various intervals and the .pressure difference between the eyes is taken as an expresion of the pharmaceutical effect.
The studies utilized a "water load" animal model.
Thirty minutes before drug solution instillation, rabbits were injected intraperitonally with 60 ml/kg of sterile distilled water for injection (30° C.) spiked with an antibiotic mixture (Sigma P9032).
At time zero, 50 μl of a drug solution was instilled to one eye and an equal volume of a saline solution was instilled to the other eye. The IOP in each eye was monitored at the time points indicated. The change in IOP at each time point is computed by subtracting the IOP in the dosed eye from that in the undosed-eye.
From these plots were assessed the maximal IOP effect, the time to reach this and the time for returning to a zero or insignificant level of IOP lowering effect. These figures were taken as a measure of potency and duration of effect.
(§1) Peptides were tested for the intraocular pressure lowering or antagonizing effects in the water load model described above or the stress induced antagonizing model respectively, in groups of four to ten rabbits, as described below. The tests were performed on homogeneous groups of randomly sexed rabbits, weight 2.5-3.0 kg, but of different breeds in various laboratories several places in the world. Thus, in some cases intergroup variations were found in the absolute starting pressure of the rabbit's eyes.
(§2) In the case of the water load model structure, each rabbit served as its own reference control for the duration of the experiment, and in the case of the stress induced antagonistic model, each group of rabbits served as reference control, at the beginning and end of 10 stress units. Usually, the peptides were dissolved in plain isotonic saline, but in one case in the waterload model, a TRIS-buffer at physiological pH was included.
50 μl of a 1% solution of the peptides in 0.9% aqueous saline were applied in one eye and 50 μl of 0.9% aqueous saline in the other eye 30 minutes after the intraperitonal water loading and IOP were measured in both eyes for 2 hours and the difference calculated.
50 μl of 1% solution of the peptides in 0.9% isotonic saline containing TRIS-buffer pH 7.4 was applied in one eye and 50 μl of 0.9% isotonic saline containing TRIS-buffer. pH 7.4 in the other eye 30 minutes after the interperitonal water loading and intraocular pressure was measured in both eyes for 2 hours and the difference calculated.

[2] = test system: stress induced intraocular pressure in the rabbit's eye; experiment: stress induced antagonizing model, intraocular pressure in the rabbit's eye; assay type: in vivo; design: key to Antagonizing Effect: Active: the pressure increase following 10 stress units for the treated group on average was found to be smaller than 2 mm Hg and to be significantly less compared to untreated controls; details: for Antagonizing Effect: 1% solution in 0.9% aqueous NaCl, 60 μl topically 3 times daily over 5 days, following 10 stress units
Description: The main feature of this clinical model is a stress induced elevation of the IOP in the rabbit eye above the initial and normal value. The stress is exerted, i.e. applied, in the form of measuring the pressure (at 12 hour intervals) with the help of a SHIOTZ-Tonometer, which is loaded with 7.5 grams. The pressure first begins to rise after 5 measurements, i.e. after 21/2 days, and reaches a maximum after 10 measurements, i.e. after 5 days.
Known antiglaucoma drugs lower the intraocular pressure when they are applied after the intraocular pressure (IOP) has clearly been established,in spite of the fact that the trauma, i.e. the measuring of the pressure, continued during the treatment.
Antagonizing of the Intraocular Pressure in the stressed Rabbit's Eyes Model
The compound was a freeze-dried powder, and was applied to the rabbit eye as a powder, or as drops, dissolved in 0.9% NaCl aqueous solution. Negative control was 0.9% NaCl solution in water.
as §1, §2
The peptides were applied topically as a 1% solution in 0.9% aqueous NaCl in aliquots of 60 μl 3 times daily over a period of 5 days.

[3] = from PCT/DK90/00322; cited from earlier work
[4] = test system: stress induced intraocular pressure in the rabbit's eye; details: earlier work in the laboratory of one of the inventors; cited from earlier work
[5] = single dose 50 μl of 1% solution in 0.9% aqueous saline in one eye, saline in the other, IOP measured for 2 hours

For `CC(=O)NCC(=O)NCC(=O)N[C@H](C(N)=O)C(C)C` [Ac-Gly-Gly-Val-NH2] (Ac-Gly-Gly-Val-NH2), which “Pressure Lowering Effect” value [1, 5] is on record?
The value was “Active”.

And the “Antagonizing Effect” value [2]?
Its value is “Active”.

Which “Antagonizing Effect” value [2] does the source give for `CC(C)[C@H](NC(=O)CNC(=O)CNC(=O)[C@@H](N)CC(N)=O)C(N)=O` [H-Asn-Gly-Gly-Val-NH2] (H-NGGV-NH2) here?
Its value is “Active”.

With `CC(C)C[C@H](NC(=O)[C@@H](N)CC(N)=O)C(=O)NCC(=O)N[C@@H](Cc1ccc(O)cc1)C(N)=O` [H-Asn-Leu-Gly-Tyr-NH2] (H-NLGY-NH2) as the compound, how does the “Antagonizing Effect” value [2] read?
Its value is “Active”.

Which “Antagonizing Effect” value [2] does the source give for `CC(C)C[C@H](NC(=O)[C@@H](N)CC(N)=O)C(=O)NCC(=O)N[C@H](C(N)=O)C(C)C` [H-Asn-Leu-Gly-Val-NH2] (H-NLGV-NH2) here?
The value was “Active”.

For `CCOC(=O)[C@@H](NC(=O)CNC(=O)CN)C(C)C` [H-Gly-Gly-Val-OEt] (H-Gly-Gly-Val-OEt), which “Antagonizing Effect” value [2] is on record?
The value was “Active”.

For `CC(C)[C@H](NC(=O)CN)C(=O)OCc1ccccc1` [H-Gly-Val-OBzl, Glycyl-L-Valine-Benzylester] (H-Gly-Val-OBn), which “Pressure Lowering Effect” value [1, 5] is on record?
The value was “Active”.

What about the “Antagonizing Effect” value [2] of the same compound?
The value was “Active”.

What about the “antagonizing effect / efficacy in the stress induced rabbit model (in words)” value ([2]; stress induced model) of the same compound?
The value was “good efficacy”.

Which results are given for `CC(C)[C@H](NC(=O)CN)C(=O)N[C@@H](Cc1ccc(O)cc1)C(N)=O` [H-Gly-Val-Tyr-NH2] (H-Gly-Val-Tyr-NH2)?
Pressure Lowering Effect [1, 5]: Active; Antagonizing Effect [2]: Active

For `CC(C)[C@H](NC(=O)CCN)C(=O)OCc1ccccc1` [H-β-Ala-Val-OBzl, β-alanyl L-valine Benzylester], which “Pressure Lowering Effect” value ([1]; single dose 50 μl of 1% solution in 0.9% isotonic saline containing TRIS-buffer pH 7.4, IOP measured for 2 hours) is on record?
The value was “Active”.

With `CC(=O)NCSC[C@H](NC(=O)[C@@H](NC(=O)CNC(=O)[C@H](CC(C)C)NC(=O)[C@@H](N)CC(N)=O)C(C)C)C(N)=O` [HAsnLeuGlyValCys(Acm)NH2, H-Asn-Leu-Gly-Val-Cys(Acm)-NH2] (H-NLGVC(Acm)-NH2) as the compound, how does the “penetration of the sclera of the eye” value [3] read?
The value was “penetrate the sclera of the eye”.

Which “pressure lowering effect in the water load model (in words)” value ([1]; 2.6% solution, positive reference control) does the source give for `CC[C@@H]1C(=O)OC[C@@H]1Cc1cncn1C` [pilocarpine, reference compound] here?
Its value is “gave a similar response to some of the preferred compounds”.

Which “pressure lowering effect of known drugs in the stress model” value [4] does the source give for `CC(C)(C)NC[C@H](O)COc1nsnc1N1CCOCC1` [timolol] here?
Its value is “pressure lowering effect”.
